Data set [1] deals with T1, Tdp1 (Homo sapiens, UniProt Q9NUW8). As to the kind of experiment: Tdp1 cleavage activity, fluorophore quencher-coupled DNA-biosensor, real-time. The format is biochemical. Details: inferred from the pET 16B vector and Ni-chelating resin purification; made in house. Conditions: recombinant Tdp1 1.5 nM, 50 nM biosensor; read-out: IC50 (Tdp1 activity inhibition at 50%). As for the experimental part: The recombinant Tdp1 was purified to homogeneity by chromatography on Ni-chelating resin and phosphocellulose P11 as described, using plasmid pET 16B-Tdp1, kindly provided by Dr. K.W. Caldecott (University of Sussex, United Kingdom). Tdp1 activity was detected as described in the work. Briefly, we measured the fluorescence intensity after quencher removal from a fluorophore quencher–coupled DNA oligonucleotide catalyzed by Tdp1. The reaction was carried out at different concentrations of inhibitors. The control samples contained 1% DMSO. The reaction mixtures contained Tdp1 buffer (50 mM Tris-HCl pH 8.0, 50 mM NaCl, and 7 mM β-mercaptoethanol), 50 nM biosensor, and an inhibitor being tested. The reaction was started by the addition of purified Tdp1 (1.5 nM). The biosensor (5′-[FAM] AAC GTC AGGGTC TTC C [BHQ]-3′) was synthesized in the Laboratory of Biomedical Chemistry at the Institute of Chemical Biology and Fundamental Medicine (Novosibirsk, Russia).
The reactions were incubated on a POLARstar OPTIMA fluorimeter (BMG LAB-TECH, GmbH) to measure fluorescence every 55 s (ex. 485 nm/em. 520 nm) during the linear phase (here, data are from minute 0 to minute 8). The values of IC50 were determined using a six-point concentration response curve in a minimum of three independent experiments, and were calculated using MARS Data Analysis 2.0 (BMG LABTECH).

For data set [2], the target named is T1, Tdp1. Details: inferred from the pET 16B vector and Ni-chelating resin purification; made in house. Conditions: cited from earlier work.
Data set [3] in a line: Cytotoxicity, EZ4U Cell Proliferation and Cytotoxicity Assay, HeLa. The format is cell-based. Conditions: human, HeLa cells, cervical cancer HeLa. As for the experimental part:
(§1) The cytotoxicity of compounds was investigated using HeLa (cervical cancer), SW837 and HCT-116 (colon cancers) cell lines, and the results are shown in Table 1 and Figure S2 in the Supplementary Materials. […] In general, the HeLa cell line was less sensitive to the inhibitors than the HCT-116 and SW837 cells.
(§2) The human cervical cancer HeLa cells were grown in Iscove’s modified Dulbecco’s medium (IMDM) with 40 μg/mL gentamicin, 50 IU/mL penicillin, 50 μg/mL streptomycin (MP Biomedicals), and 10% of fetal bovine serum (Biolot) in a 5% CO2 atmosphere. Human colon adenocarcinoma HCT-116, rectum adenocarcinoma SW837, and human embryo kidney HEK293A cell lines were cultured in DMEM medium (Invitrogen) supplemented with 10% fetal bovine serum (FBS) (Invitrogen), penicillin (100 units/mL), and streptomycin (100 μg/mL), at 37 °C, 5% CO2 in a humid atmosphere. After the formation of a 30–50% monolayer, the tested compounds were added to the medium. The volume of the added reagents was 1/100 of the total volume of the culture medium, and the amount of DMSO was 1% of the final volume. Control cells were grown in the presence of 1% DMSO. The cell culture was monitored for 3 days.
(§3) The cytotoxicity of the compounds to HeLa and HEK293A cell lines was examined using the EZ4U Cell Proliferation and Cytotoxicity Assay (Biomedica, Austria), according to the manufacturer’s protocols.

Data set [4] in a line: Cytotoxicity, MTT test, HCT-116. Conditions: human, HCT-116 cells; colorectal HCT-116, 72 h MTT. It is filed as cell-based. As for the experimental part: as §1, §2
(§4) The medium was removed, and the dark blue crystals of formazan were dissolved in 100 μL of isopropanol. The absorbance at 570 nm (peak) and 620 nm (baseline) was determined using a microplate reader Multiscan FC (Thermo Fisher Scientific Corporation). All concentrations were performed in triplicate. The values are given as mean ± standard deviation (S.D.) values, and all measurements were repeated three times.

The nature of data set [5]: Cytotoxicity, MTT test, SW837. The format is cell-based. Conditions: human, SW837 cells; colorectal SW837, 72 h MTT. As for the experimental part: as §1, §2, §4
Background: Tetrazolium dyes change colour on reduction, which living cells bring about.

For a further data set, the system named is HeLa cells. In words: Sensitizing of HeLa cells to topotecan by Tdp1 inhibitors. The format is cell-based, human. Conditions: for HeLa CC50 of topotecan with Tdp1 inhibitor: human, 3 days, 5 µM; for combination index (CI) with topotecan: HeLa, different concentrations of topotecan, CompuSyn. Here is the method: (§5) The potential for sensitizing the cancer cell lines to topotecan using the Tdp1 inhibitors was investigated using the MTT assay. Neutralizing the enzymatic activity of Tdp1 by blocking access to its catalytic site using a small molecule should sensitize the cytotoxic potential of topotecan, since the complex of Top1 with DNA cannot be unraveled. […] Nontoxic concentrations of the adamantane derivatives (5 μM) were used for the HeLa cell line; the dose response for topotecan was measured and the corresponding CC50 values were derived, and the results are shown in Figure 4 for 20c and in Table 2 for all the derivatives.
(§6) For HeLa cells, increased cytotoxicity was seen when the adamantanes and topotecan were combined. […] The combination index (CI) for different concentrations of topotecan and 20c at 5 μM was in the range 0.49–0.82, and at 10 μM of 20c, it was 0.23–0.78. This indicates a synergistic effect of topotecan and 20c. The CI values were calculated with the CompuSyn version 1.0 software. For the HCT-116 cells, the synergistic effects of the compounds were different than for the HeLa cells. […] The CI plot at a different fraction affected (Fa) was determined for topotecan (5, 15, 150, 500 and 1500 nM) and 20g (1, 3, 10, 20 μM). The CI values for most of the combinations correspond to a synergistic effect (CI < 1, see Figure S3 in the Supplementary Materials).
as §2, §3

Another data set relates to HCT-116 cells. As to the kind of experiment: Sensitizing of HCT-116 cells to topotecan by Tdp1 inhibitors. The format is cell-based, human. The conditions noted are these: for HCT116 CC50 of topotecan with Tdp1 inhibitor: human, 72 h. Here is the method: as §5, §6, §2, §4
The nature of data set [6]: Solubility remark during biological testing. It is filed as physicochemical. The conditions noted are these: remark in words.
A further data set concerns HEK293A cells. As to the kind of experiment: Cytotoxicity on noncancerous cell line HEK293A (EZ4U). It is filed as cell-based, human. Conditions: concentrations up to 30 μM; data not shown. Here is the method:
as §1, §2, §3

Like-named read-outs stand apart in the source and are kept apart here.

One may read the melting point as the temperature of the solid-liquid transition. The term IC50 denotes the concentration that inhibits the measured activity by half. The CC50 is the concentration at which the toxic effect on the cells reaches its halfway point. High values mean better tolerance by the cells, low ones harm at low concentration.

T1 sequence (Q9NUW8 whole entry): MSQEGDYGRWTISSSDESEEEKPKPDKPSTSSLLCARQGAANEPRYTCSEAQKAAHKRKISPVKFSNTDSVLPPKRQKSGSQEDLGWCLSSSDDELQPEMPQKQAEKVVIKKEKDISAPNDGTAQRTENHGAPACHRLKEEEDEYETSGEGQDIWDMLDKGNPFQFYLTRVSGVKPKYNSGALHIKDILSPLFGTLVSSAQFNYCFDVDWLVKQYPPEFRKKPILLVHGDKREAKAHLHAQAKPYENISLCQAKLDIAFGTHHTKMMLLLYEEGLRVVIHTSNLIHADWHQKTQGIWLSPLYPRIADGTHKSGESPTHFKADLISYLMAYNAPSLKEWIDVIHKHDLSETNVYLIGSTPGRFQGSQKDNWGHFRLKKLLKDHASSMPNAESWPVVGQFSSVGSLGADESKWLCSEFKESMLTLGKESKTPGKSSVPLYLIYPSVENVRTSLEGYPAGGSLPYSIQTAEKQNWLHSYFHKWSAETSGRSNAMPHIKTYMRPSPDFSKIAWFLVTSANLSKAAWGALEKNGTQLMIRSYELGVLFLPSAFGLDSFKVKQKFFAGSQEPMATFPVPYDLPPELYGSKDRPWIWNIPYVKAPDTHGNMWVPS

As to `CC(C)CCCC(C)CC(=O)NC12CC3CC(CC(C3)C1)C2` (centres unmarked) [26a, N-(Adamantan-1-yl)-3,7-dimethyloctanamide], the melting point is 97.9 °C. In addition, at Tdp1 [1], the IC50 was greater than 15 µM.
Consider `C[C@@H]1CC[C@@H]2[C@@H](C1)O[C@@H](c1ccc(NC(=O)c3cccc4ccccc34)s1)C[C@]2(C)O` [compound 5], for which the IC50 at Tdp1 [2] is 2 µM.
For the molecule `CC(C)=CCCC(C)CC1N2CC3(C)CN1CC(C)(C2)C3=O` (centres unmarked) [compound 3], on Tdp1 [2], the concentration for half-maximal inhibition (IC50) was roughly 15 µM.
In turn, `CC(C)=CCCC(C)CC(=O)Nc1nnc(C23CC4CC(CC(C4)C2)C3)s1` (centres unmarked) [25b, N-(5-(Adamantan-1-yl)-1,3,4-thiadiazol-2-yl)-3,7-dimethyloct-6-enamide] gave a half-maximal cytotoxic concentration (CC50) at 3 days in data set [3] greater than 100 µM. The cytotoxic concentration (CC50) at 72 h was 66 ± 6 µM in data set [4] and 83 ± 8 µM in data set [5]. Also, the “HeLa CC50 of topotecan with Tdp1 inhibitor” value with HeLa cells was 2.9 µM. In addition, in the data set on HCT-116 cells (20 µM), the “HCT116 CC50 of topotecan with Tdp1 inhibitor” value is reported as 611.9 (20) nM. In addition, the solubility entry in data set [6] was “poor solubility”. Moreover, the concentration for half-maximal inhibition (IC50) on Tdp1 [1] came out at 2.59 ± 0.48 µM.
`CC1(C)[C@H]2CC=C(CCSc3n[nH]c(C45CC6CC(CC(C6)C4)C5)n3)[C@@H]1C2` [20g, 5-(Adamantan-1-yl)-3-((2-((1R,5S)-6,6-dimethylbicyclo[3.1.1]hept-2-en-2-yl)ethyl)thio)-1H-1,2,4-triazole] registered a CC50 at 3 days in [3] of 74 ± 17 µM. Besides, the figures for the CC50 at 72 h in data set [4] and in data set [5] were 34 ± 6 µM and 40 ± 4 µM, respectively. The “effect on cell viability, HEK293A” value in the data set on HEK293A cells was “no effect on cell viability”. In the data set on HeLa cells, the “HeLa CC50 of topotecan with Tdp1 inhibitor” value was 2.6 µM. In addition, the “combination index (CI) with topotecan” value in the data set on HCT-116 cells (HCT-116, topotecan 5-1500 nM, inhibitor 1, 3, 10, 20 μM, most of the combinations) was less than 1. In the data set on HCT-116 cells (20 µM), the “HCT116 CC50 of topotecan with Tdp1 inhibitor” value is 235.8 (20) nM. The IC50 at Tdp1 [1] turned out to be 0.57 ± 0.14 µM.
Regarding `C=C(C)[C@@H]1CC=C(C(=O)Nc2nnc(C34CC5CC(CC(C5)C3)C4)s2)CC1` [25d, (S)-N-(5-(adamantan-1-yl)-1,3,4-thiadiazol-2-yl)-4-(prop-1-en-2-yl)cyclohex-1-ene-1-carboxamide], the melting point is 265.6 °C. Further, the solubility entry in [6] is given as “poor solubility”.
`CC(C)=CCC/C(C)=C/CSc1n[nH]c(C23CC4CC(CC(C4)C2)C3)n1` [20c, 5-(Adamantan-1-yl)-3-(((E)-3,7-dimethylocta-2,6-dien-1-yl)thio)-1H-1,2,4-triazole]: the cytotoxic concentration (CC50) at 3 days in data set [3] stood at 64 ± 6 µM. For the same molecule, the half-maximal cytotoxic concentration (CC50) at 72 h in [4] was found to be 16 ± 7 µM; in [5], 41 ± 6 µM. Also, the “effect on cell viability, HEK293A” value with HEK293A cells is “no effect on cell viability”. The “potentiation of the cytotoxic potency of topotecan” value in the data set with HeLa cells worked out at 3 ×. Further, the “combination index (CI) with topotecan” value is 0.49–0.82 with HeLa cells (inhibitor at 5 μM) and 0.23–0.78 with HeLa cells (inhibitor at 10 μM). Moreover, the “HeLa CC50 of topotecan with Tdp1 inhibitor” value in the data set on HeLa cells was found to be 1.9 µM. For the same molecule, the “HCT116 CC50 of topotecan with Tdp1 inhibitor” value in the data set on HCT-116 cells (15 µM) was 460.0 (15) nM. In addition, the IC50 at Tdp1 [1] was determined as 5.3 ± 1.7 µM.
`C[C@@H]1CC[C@@H]2[C@@H](C1)O[C@@H](c1ccc(NC(=O)C34CC5CC(CC(C5)C3)C4)s1)C[C@]2(C)O` [compound 13]: the 50% inhibitory concentration (IC50) on Tdp1 [2] was 1.2 µM.

Values taken from publication PMC8197275, “Novel Tdp1 Inhibitors Based on Adamantane Connected with Monoterpene Moieties via Heterocyclic Fragments” (Molecules, 2021).
